The test system of one test is cholesterol in serum. Kind of test: Hypocholesterolemic effect in cholesterol-fed mice. Format: in vivo, Male ICR mice. Conditions: Mus musculus, po, 168 h, diet 1% cholesterol and 0.5% sodium cholate with 0.12% test compound, 7 days. Here is the method: Hypocholesterolemic effect
Male ICR mice weighing 30 to 40 g were allowed to access to a diet containing 1% cholesterol and 0.5% sodium cholate supplemented with 0.12% of a test compound (no test compound in control group) ad libitum for 7 days. Then, the blood was taken and total cholesterol in serum was determined by the method of Allain (Clin. Chem., Vol. 20, 470 (1974)).
Total amount of VLDL cholesterol and LDL cholesterol was obtained by subtracting HLD cholesterol from total cholesterol. HLD cholesterol was quantified by the method of Ash and Hentschel et al. (Clin. Chem., Vol. 24, 2180 (1978)).
Hypocholesterolemic effect of a test compound was evaluated based on % reduction in cholesterol calculated using the equation shown below.

The test system of a further test is LDL. The test can be described thus: Inhibitory effect on oxidative modification of LDL (copper-induced, TBA reactive substances). It counts as biochemical, New Zealand albino rabbits. Conditions: rabbit LDL 0.2 mg protein/ml, 0.5 μM Cu^2+, 37° C., 24 hours; read-out: Inhibition of LDL oxidation IC50. Here is the method: Inhibitory effect on oxidative modification of LDL
According to the method by Kita et al. (Proc. Natl. Acad. Sci., U.S.A, Vol. 84, 5928 (1987)), the experiment was proceeded as follows.
LDL was isolated from the blood of New Zealand albino rabbits fed with a diet containing 0.5% cholesterol for 3 weeks, and dissolved in phosphate-buffered physiological saline (final LDL concentration: 0.2 mg protein/ml). To this solution, each test compound in ethanol was added and then copper sulfate (final Cu^2+ concentration: 0.5 μM) was added thereto. The mixture was incubated at 37° C. for 24 hours.
After incubation, the content of lipid peroxides in each solution was determined as thiobarbituric acid reactive substances (TBA reactive substances). Concentration for 50% inhibition (IC50) was obtained from a linear regression curve of concentration of a compound versus % inhibition of oxidative modification of LDL. To quantify TBA reactive substances, proteins were removed from the solution after incubation, and the supernatant was examined for the content of TBA reactive substances by TBA method.

The mark [1] stands for this setting: serum, read-out: Total Chol. reduction (%).
[2] abbreviates: total minus HDL cholesterol, read-out: (VLDL + LDL) Chol. reduction (%).

Read-outs that look alike come from different tables or passages of the source.

With `COC(=O)c1c(C(=O)c2ccc(C(F)(F)F)cc2)c(O)c2cc(OC)c(OC)c(OC)c2c1-c1ccc(OC)c(OC)c1` [Example 28, 1-(3,4-Dimethoxyphenyl)-4-hydroxy-2-methoxycarbonyl-3-[4-(trifluoromethyl)benzoyl]-6,7,8-trimethoxynaphthalene], the inhibition in vivo at 0.12 % in diet in the test with cholesterol in serum (setting [1]) turned out to be 22%; in the test on cholesterol in serum (setting [2]) it was 61%. In addition, the IC50 in the test on LDL turned out to be 1.52 µM.

In the case of `CCCc1ccc(C(=O)c2c(C(=O)OC)c(-c3ccc(OC)c(OC)c3)c3c(OC)c(OC)c(OC)cc3c2O)cc1` [Example 29, 1-(3,4-Dimethoxyphenyl)-4-hydroxy-2-methoxycarbonyl-3-[4-(1-propyl)benzoyl]-6,7,8-trimethoxynaphthalene], the inhibition in vivo at 0.12 % in diet was 20% with cholesterol in serum (setting [1]) and 42% with cholesterol in serum (setting [2]). The IC50 in the test with LDL came to 1.38 µM.

On to `COC(=O)c1c(C(=O)c2ccc(C(C)(C)C)cc2)c(O)c2cc(OC)c(OC)c(OC)c2c1-c1ccc(OC)c(OC)c1` [Example 30, 3-[4-(t-Butyl)benzoyl]-1-(3,4-dimethoxyphenyl)-4-hydroxy-2-methoxycarbonyl-6,7,8-trimethoxynaphthalene], for which the inhibition in vivo at 0.12 % in diet amounted to 7% in the test on cholesterol in serum (setting [1]) and 44% in the test on cholesterol in serum (setting [2]). Moreover, the IC50 in the test on LDL turned out to be 2 µM.

As to `COC(=O)c1c(C(=O)C(F)(F)C(F)(F)F)c(O)c2cc(OC)c(OC)c(OC)c2c1-c1ccc(OC)c(OC)c1` [Example 31, 1-(3,4-Dimethoxyphenyl)-4-hydroxy-2-methoxycarbonyl-3-(pentafluoro-1-oxopropyl)-6,7,8-trimethoxynaphthalene], the figures for the inhibition in vivo at 0.12 % in diet in the test with cholesterol in serum (setting [1]) and with cholesterol in serum (setting [2]) were 15% and 41%, respectively. For the same compound, the half-inhibitory concentration (IC50) in the test on LDL came out at 0.85 µM.

`CCC(CC)CC(=O)c1c(C(=O)OC)c(-c2ccc(OC)c(OC)c2)c2cc3c(cc2c1O)OCCO3` [Example 36, 1-(3,4-Dimethoxyphenyl)-6,7-ethylenedioxy-3-(3-ethyl-1-oxopentyl)-4-hydroxy-2-(methoxycarbonyl)naphthalene]: the inhibition in vivo at 0.12 % in diet is 21% in the test on cholesterol in serum (setting [1]) and 49% in the test with cholesterol in serum (setting [2]). For the same compound, the IC50 in the test with LDL came out at 2.21 µM.

In the case of `CCC(=O)c1c(C(=O)OC)c(-c2ccc(OC)c(OC)c2)c2cc(OC(C)C)c(OC(C)C)cc2c1O` [Example 38, 6,7-Bis(2-propyloxy)-1-(3,4-dimethoxyphenyl)-4-hydroxy-2-methoxycarbonyl-3-(1-oxopropyl)naphthalene], the inhibition in vivo at 0.12 % in diet in the test on cholesterol in serum (setting [1]) came out at 26%; with cholesterol in serum (setting [2]), 61%. The IC50 in the test with LDL is 2.1 µM.

As to `COC(=O)c1c(C(=O)c2ccc(C(F)(F)F)cc2)c(O)c2cc(OC(C)C)c(OC(C)C)cc2c1-c1ccc(OC)c(OC)c1` [Example 40, 6,7-Bis(2-propyloxy)-1-(3,4-dimethoxyphenyl)-4-hydroxy-2-methoxycarbonyl-3-[4-(trifluoromethyl)benzoyl]naphthalene], the inhibition in vivo at 0.12 % in diet with cholesterol in serum (setting [1]) came to 23%; with cholesterol in serum (setting [2]) it was 56%. Further, in the test with LDL, the IC50 was determined as 4.29 µM.

`CCC(=O)c1c(C(=O)OC)c(-c2ccc(OC)cc2OC)c2c(OC)c(OC)c(OC)cc2c1O` [Example 41, 1-(2,4-Dimethoxyphenyl)-4-hydroxy-2-methoxycarbonyl-3-(1-oxopropyl)-6,7,8-trimethoxynaphthalene]: the inhibition in vivo at 0.12 % in diet is 11% with cholesterol in serum (setting [1]) and 41% in the test on cholesterol in serum (setting [2]). Besides, the IC50 in the test with LDL was 17 µM.

Turning to `CCC(CC)CC(=O)c1c(C(=O)OC)c(-c2ccc(OC)cc2OC)c2c(OC)c(OC)c(OC)cc2c1O` [Example 42, 1-(2,4-Dimethoxyphenyl)-3-(3-ethyl-1-oxopentyl)-4-hydroxy-2-methoxycarbonyl-6,7,8-trimethoxynaphthalene], the results for the inhibition in vivo at 0.12 % in diet in the test with cholesterol in serum (setting [1]) and with cholesterol in serum (setting [2]) were 5% and 26%, respectively. Further, in the test on LDL, the IC50 came out at 1.68 µM.
